Experimental data as given in patent US4060603A, “Histidine derivatives” (Reckitt & Colman Products Limited, priority 1975, dated 1977).

Test system: reserpine induced hypothermia
Assay: reversal of reserpine induced hypothermia test in mice
Assay type: in vivo

## C[C@H]1CCN(C(=O)[C@H](Cc2c[nH]cn2)NC(=O)[C@@H]2CCC(=O)N2)[C@@H]1C(N)=O [Example 1, L-Pyroglutamyl-L-histidyl-trans-3-methyl-L-prolineamide]
Fully reserpinised mice, over 4 hours, P < 0.05, Mann Whitney U test
  calorigenic effect in reversal of reserpine induced hypothermia: significant
mice, doses 1-30 mg/Kg p.o.
  potency relative to TRH (times more potent): 3-4 time
